Laboratory results: PubChem BioAssay (NCI)
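1) Cells in 96-well plates. 2) Compound, 48 h, 5 concentrations. 3) Linear interpolation between surrounding doses. 4) Unreached endpoint = highest concentration. The concentration for full growth arrest is given as TGI.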

What was measured:
Experiment in all cases: growth of human tumour cells (NCI), 48 h
786-0 renal = tested on: 786-0 renal
A498 renal = tested on: A498 renal
A549 NSCLC = tested on: A549 NSCLC
ACHN renal = tested on: ACHN renal
BT-549 breast = tested on: BT-549 breast
CAKI-1 renal = tested on: CAKI-1 renal
CCRF-CEM leukemia = tested on: CCRF-CEM leukemia
COLO 205 colon = tested on: COLO 205 colon
DU-145 prostate = tested on: DU-145 prostate
EKVX NSCLC = tested on: EKVX NSCLC
HCC-2998 colon = tested on: HCC-2998 colon
HCT-116 colon = tested on: HCT-116 colon
HCT-15 colon = tested on: HCT-15 colon
HL-60(TB) leukemia = tested on: HL-60(TB) leukemia
HOP-62 NSCLC = tested on: HOP-62 NSCLC
HOP-92 NSCLC = tested on: HOP-92 NSCLC
HS 578T breast = tested on: HS 578T breast
HT29 colon = tested on: HT29 colon
IGROV1 ovarian = tested on: IGROV1 ovarian
KM12 colon = tested on: KM12 colon
LOX IMVI melanoma = tested on: LOX IMVI melanoma
M14 melanoma = tested on: M14 melanoma
MALME-3M melanoma = tested on: MALME-3M melanoma
MCF7 breast = tested on: MCF7 breast
MDA-MB-231 breast = tested on: MDA-MB-231 breast
MDA-MB-435 = tested on: MDA-MB-435
MDA-N = tested on: MDA-N
MOLT-4 leukemia = tested on: MOLT-4 leukemia
NCI-H226 lung = tested on: NCI-H226 lung
NCI-H23 lung = tested on: NCI-H23 lung
NCI-H460 lung = tested on: NCI-H460 lung
NCI-H522 lung = tested on: NCI-H522 lung
OVCAR-4 ovarian = tested on: OVCAR-4 ovarian
OVCAR-5 ovarian = tested on: OVCAR-5 ovarian
OVCAR-8 ovarian = tested on: OVCAR-8 ovarian
PC-3 prostate = tested on: PC-3 prostate
RXF 393 renal = tested on: RXF 393 renal
SF-268 CNS = tested on: SF-268 CNS
SF-295 CNS = tested on: SF-295 CNS
SF-539 CNS = tested on: SF-539 CNS
SK-MEL-2 melanoma = tested on: SK-MEL-2 melanoma
SK-MEL-28 melanoma = tested on: SK-MEL-28 melanoma
SK-MEL-5 melanoma = tested on: SK-MEL-5 melanoma
SK-OV-3 ovarian = tested on: SK-OV-3 ovarian
SN12C renal = tested on: SN12C renal
SNB-19 CNS = tested on: SNB-19 CNS
SNB-75 CNS = tested on: SNB-75 CNS
SW-620 colon = tested on: SW-620 colon
T-47D breast = tested on: T-47D breast
TK-10 renal = tested on: TK-10 renal
U251 CNS = tested on: U251 CNS
UACC-257 melanoma = tested on: UACC-257 melanoma
UACC-62 melanoma = tested on: UACC-62 melanoma
UO-31 renal = tested on: UO-31 renal
K-562 leukemia = tested on: K-562 leukemia
NCI/ADR-RES ovarian = tested on: NCI/ADR-RES ovarian
OVCAR-3 ovarian = tested on: OVCAR-3 ovarian
RPMI-8226 leukemia = tested on: RPMI-8226 leukemia

CC1=C(C)C(=O)C(C2=C(C3=CC(=O)C(C)=C(C)C3=O)C(=O)C(C)=C(C)C2=O)=CC1=O
TGI (786-0 renal): > 49.4 µM | TGI (A498 renal): 21.5 µM | TGI (A549 NSCLC): > 84.4 µM | TGI (ACHN renal): 18.3 µM | TGI (BT-549 breast): 21.6 µM | TGI (CAKI-1 renal): 8.87 µM | TGI (CCRF-CEM leukemia): > 100 µM | TGI (COLO 205 colon): 8.07 µM | TGI (DU-145 prostate): 30 µM | TGI (EKVX NSCLC): > 70 µM | TGI (HCC-2998 colon): 28.6 µM | TGI (HCT-116 colon): > 100 µM | TGI (HCT-15 colon): > 61.8 µM | TGI (HL-60(TB) leukemia): > 100 µM | TGI (HOP-62 NSCLC): 36.5 µM | TGI (HOP-92 NSCLC): > 51.2 µM | TGI (HS 578T breast): > 79.7 µM | TGI (HT29 colon): 9.02 µM | TGI (IGROV1 ovarian): 31.2 µM | TGI (KM12 colon): 30.4 µM | TGI (LOX IMVI melanoma): > 21.3 µM | TGI (M14 melanoma): > 40.7 µM | TGI (MALME-3M melanoma): 11.4 µM | TGI (MCF7 breast): > 21.1 µM | TGI (MDA-MB-231 breast): 5.29 µM | TGI (MDA-MB-435): 14.2 µM | TGI (MDA-N): > 20.2 µM | TGI (MOLT-4 leukemia): > 100 µM | TGI (NCI-H226 lung): 31.8 µM | TGI (NCI-H23 lung): 43.1 µM | TGI (NCI-H460 lung): 29.6 µM | TGI (NCI-H522 lung): 5.21 µM | TGI (OVCAR-4 ovarian): 4.57 µM | TGI (OVCAR-5 ovarian): > 34.6 µM | TGI (OVCAR-8 ovarian): > 47.1 µM | TGI (PC-3 prostate): 16 µM | TGI (RXF 393 renal): 5.16 µM | TGI (SF-268 CNS): 34.5 µM | TGI (SF-295 CNS): 33.8 µM | TGI (SF-539 CNS): 4.99 µM | TGI (SK-MEL-2 melanoma): 31 µM | TGI (SK-MEL-28 melanoma): 14 µM | TGI (SK-MEL-5 melanoma): 5.85 µM | TGI (SK-OV-3 ovarian): 32.6 µM | TGI (SN12C renal): 47.9 µM | TGI (SNB-19 CNS): > 100 µM | TGI (SNB-75 CNS): 33.3 µM | TGI (SW-620 colon): 13 µM | TGI (T-47D breast): 7.32 µM | TGI (TK-10 renal): 27 µM | TGI (U251 CNS): > 38.2 µM | TGI (UACC-257 melanoma): 28.4 µM | TGI (UACC-62 melanoma): 25.9 µM | TGI (UO-31 renal): 34.1 µM

CN1C(=O)C(/C=N/NC(=O)c2cccnc2)C(N)N(C)C1=O (configuration not stated)
TGI (786-0 renal): > 100 µM | TGI (A549 NSCLC): > 100 µM | TGI (ACHN renal): > 100 µM | TGI (BT-549 breast): > 100 µM | TGI (CAKI-1 renal): > 100 µM | TGI (CCRF-CEM leukemia): > 100 µM | TGI (COLO 205 colon): > 100 µM | TGI (DU-145 prostate): > 100 µM | TGI (EKVX NSCLC): > 100 µM | TGI (HCC-2998 colon): > 100 µM | TGI (HCT-116 colon): > 100 µM | TGI (HCT-15 colon): > 100 µM | TGI (HOP-62 NSCLC): > 100 µM | TGI (HS 578T breast): > 100 µM | TGI (HT29 colon): > 100 µM | TGI (IGROV1 ovarian): > 100 µM | TGI (K-562 leukemia): > 100 µM | TGI (KM12 colon): > 100 µM | TGI (M14 melanoma): > 100 µM | TGI (MALME-3M melanoma): > 100 µM | TGI (MCF7 breast): > 100 µM | TGI (MDA-MB-231 breast): > 100 µM | TGI (MDA-MB-435): > 100 µM | TGI (MDA-N): > 100 µM | TGI (MOLT-4 leukemia): > 100 µM | TGI (NCI-H226 lung): > 100 µM | TGI (NCI-H23 lung): > 100 µM | TGI (NCI-H460 lung): > 100 µM | TGI (NCI-H522 lung): > 100 µM | TGI (NCI/ADR-RES ovarian): > 100 µM | TGI (OVCAR-3 ovarian): > 100 µM | TGI (OVCAR-4 ovarian): > 100 µM | TGI (OVCAR-5 ovarian): > 100 µM | TGI (OVCAR-8 ovarian): > 100 µM | TGI (PC-3 prostate): > 100 µM | TGI (RPMI-8226 leukemia): > 100 µM | TGI (RXF 393 renal): > 100 µM | TGI (SF-268 CNS): > 100 µM | TGI (SF-295 CNS): > 100 µM | TGI (SK-MEL-2 melanoma): > 100 µM | TGI (SK-MEL-28 melanoma): > 100 µM | TGI (SK-MEL-5 melanoma): > 100 µM | TGI (SK-OV-3 ovarian): > 100 µM | TGI (SN12C renal): > 100 µM | TGI (SNB-19 CNS): > 100 µM | TGI (SNB-75 CNS): > 100 µM | TGI (SW-620 colon): > 100 µM | TGI (T-47D breast): > 100 µM | TGI (TK-10 renal): > 100 µM | TGI (U251 CNS): > 100 µM | TGI (UACC-257 melanoma): > 100 µM | TGI (UACC-62 melanoma): > 100 µM | TGI (UO-31 renal): > 100 µM
